In patent publication US8461083B2, “Herbicidal compounds” (Syngenta Limited, priority 2008, dated 2013):

What was measured:
Assay type in all cases: in vivo
[1] = test system: Alopecurus myosuroides (ALOMY); test: Post-emergence herbicidal glasshouse test; details: post-emergence (sprayed after 8 days cultivation), evaluated after 13 days, 100=total damage to plant, 0=no damage to plant; for pest or weed control at 1000 g/ha: Alopecurus myosuroides, 312 h, read-out: POST Application ALOMY, damage to plant; for POST Application ALOMY, damage to plant: 1000 g/ha
In short: (§1)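 Seeds were sown in standard soil in pots and sprayed 1 day after sowing (pre-emergence) or after 8 days' cultivation (post-emergence). Compounds were applied at 1000 g/ha in acetone/water (50:50) with 0.5% Tween 20. Plants were kept at 24/16 °C day/night, 14 h light, 65% humidity, and damage was scored after 13 days (0 = none, 100 = total).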

[2] = test system: Amaranthus retoflexus (AMARE); test: Post-emergence herbicidal glasshouse test; details: post-emergence (sprayed after 8 days cultivation), evaluated after 13 days, 100=total damage to plant, 0=no damage to plant; for pest or weed control at 1000 g/ha: Amaranthus retroflexus, 312 h, read-out: POST Application AMARE, damage to plant; for POST Application AMARE, damage to plant: 1000 g/ha
In short: as §1

[3] = test system: Echinochloa crus-galli (ECHCG); test: Post-emergence herbicidal glasshouse test; details: post-emergence (sprayed after 8 days cultivation), evaluated after 13 days, 100=total damage to plant, 0=no damage to plant; for pest or weed control at 1000 g/ha: Echinochloa crus-galli, 312 h, read-out: POST Application ECHCG, damage to plant; for POST Application ECHCG, damage to plant: 1000 g/ha
In short: as §1

[4] = test system: Setaria faberi (SETFA); test: Post-emergence herbicidal glasshouse test; details: post-emergence (sprayed after 8 days cultivation), evaluated after 13 days, 100=total damage to plant, 0=no damage to plant; for pest or weed control at 1000 g/ha: Setaria faberi, 312 h, read-out: POST Application SETFA, damage to plant; for POST Application SETFA, damage to plant: 1000 g/ha
In short: as §1

[5] = test system: Solanum nigrum (SOLNI); test: Post-emergence herbicidal glasshouse test; details: post-emergence (sprayed after 8 days cultivation), evaluated after 13 days, 100=total damage to plant, 0=no damage to plant; for pest or weed control at 1000 g/ha: Solanum nigrum, 312 h, read-out: POST Application SOLNI, damage to plant; for POST Application SOLNI, damage to plant: 1000 g/ha
In short: as §1

[6] = test system: Alopecurus myosuroides (ALOMY); test: Pre-emergence herbicidal glasshouse test; details: pre-emergence (sprayed after one day cultivation), evaluated after 13 days, 100=total damage to plant, 0=no damage to plant; for pest or weed control at 1000 g/ha: Alopecurus myosuroides, 312 h, read-out: PRE Application ALOMY, damage to plant; for PRE Application ALOMY, damage to plant: 1000 g/ha
In short: as §1

[7] = test system: Amaranthus retoflexus (AMARE); test: Pre-emergence herbicidal glasshouse test; details: pre-emergence (sprayed after one day cultivation), evaluated after 13 days, 100=total damage to plant, 0=no damage to plant; for pest or weed control at 1000 g/ha: Amaranthus retroflexus, 312 h, read-out: PRE Application AMARE, damage to plant; for PRE Application AMARE, damage to plant: 1000 g/ha
In short: as §1

[8] = test system: Echinochloa crus-galli (ECHCG); test: Pre-emergence herbicidal glasshouse test; details: pre-emergence (sprayed after one day cultivation), evaluated after 13 days, 100=total damage to plant, 0=no damage to plant; for pest or weed control at 1000 g/ha: Echinochloa crus-galli, 312 h, read-out: PRE Application ECHCG, damage to plant; for PRE Application ECHCG, damage to plant: 1000 g/ha
In short: as §1

[9] = test system: Setaria faberi (SETFA); test: Pre-emergence herbicidal glasshouse test; details: pre-emergence (sprayed after one day cultivation), evaluated after 13 days, 100=total damage to plant, 0=no damage to plant; for pest or weed control at 1000 g/ha: Setaria faberi, 312 h, read-out: PRE Application SETFA, damage to plant; for PRE Application SETFA, damage to plant: 1000 g/ha
In short: as §1

[10] = test system: Solanum nigrum (SOLNI); test: Pre-emergence herbicidal glasshouse test; details: pre-emergence (sprayed after one day cultivation), evaluated after 13 days, 100=total damage to plant, 0=no damage to plant; for pest or weed control at 1000 g/ha: Solanum nigrum, 312 h, read-out: PRE Application SOLNI, damage to plant; for PRE Application SOLNI, damage to plant: 1000 g/ha
In short: as §1

## Cn1c(=O)ccc2cc(C(=O)C3C(=O)CCCC3=O)c(C(F)(F)F)nc21 [Compound 2.21, 2-(8-methyl-7-oxo-7,8-dihydro-2-trifluoromethyl-[1,8]-naphthyridine-3-carbony)-cyclohexane-1,3-dione]
[1]
  pest or weed control at 1000 g/ha: 80%
[2]
  pest or weed control at 1000 g/ha: 90%
[3]
  pest or weed control at 1000 g/ha: 70%
[4]
  pest or weed control at 1000 g/ha: 80%
[5]
  pest or weed control at 1000 g/ha: 80%
[6]
  pest or weed control at 1000 g/ha: 90%
[7]
  pest or weed control at 1000 g/ha: 100%
[8]
  pest or weed control at 1000 g/ha: 100%
[9]
  pest or weed control at 1000 g/ha: 100%
[10]
  pest or weed control at 1000 g/ha: 100%

## CC(F)c1ccc2cc(C(=O)C3C(=O)CCCC3=O)c(C(F)(F)F)nc2n1 (stereo not drawn) [Compound 1.35, 2-[7-(1-fluoroethyl)-2-trifluoromethyl-[1,8]-naphthyridine-3-carbony]-cyclohexane-1,3-dione]
[1]
  POST Application ALOMY, damage to plant: 90
[2]
  POST Application AMARE, damage to plant: 100
[3]
  POST Application ECHCG, damage to plant: 90
[4]
  POST Application SETFA, damage to plant: 90
[5]
  POST Application SOLNI, damage to plant: 90
[6]
  PRE Application ALOMY, damage to plant: 70
[7]
  PRE Application AMARE, damage to plant: 100
[8]
  PRE Application ECHCG, damage to plant: 100
[9]
  PRE Application SETFA, damage to plant: 100
[10]
  PRE Application SOLNI, damage to plant: 100

## Cc1nc2nc(C(F)(F)F)c(C(=O)C3C(=O)CCCC3=O)cc2cc1F [Compound 1.41, 2-[6-fluoro-7-methyl-2-trifluoromethyl-[1,8]-naphthyridine-3-carbony]-cyclohexane-1,3-dione]
[1]
  pest or weed control at 1000 g/ha: 90%
[2]
  pest or weed control at 1000 g/ha: 100%
[3]
  pest or weed control at 1000 g/ha: 90%
[4]
  pest or weed control at 1000 g/ha: 100%
[5]
  pest or weed control at 1000 g/ha: 90%
[6]
  pest or weed control at 1000 g/ha: 90%
[7]
  pest or weed control at 1000 g/ha: 100%
[8]
  pest or weed control at 1000 g/ha: 100%
[9]
  pest or weed control at 1000 g/ha: 100%
[10]
  pest or weed control at 1000 g/ha: 100%

## O=C1CCCC(=O)C1C(=O)c1cc2ccc(Oc3ccccc3)nc2nc1C(F)(F)F [Compound 1.17, 2-(7-phenoxy-2-trifluoromethyl-[1,8]-naphthyridine-3-carbonyl)-cyclohexane-1,3-dione]
[1]
  pest or weed control at 1000 g/ha: 90%
[2]
  pest or weed control at 1000 g/ha: 70%
[3]
  pest or weed control at 1000 g/ha: 90%
[4]
  pest or weed control at 1000 g/ha: 100%
[5]
  pest or weed control at 1000 g/ha: 100%
[6]
  pest or weed control at 1000 g/ha: 100%
[7]
  pest or weed control at 1000 g/ha: 100%
[8]
  pest or weed control at 1000 g/ha: 100%
[9]
  pest or weed control at 1000 g/ha: 100%
[10]
  pest or weed control at 1000 g/ha: 100%

## O=C1CCCC(=O)C1C(=O)c1cc2ccc(O)nc2nc1C(F)(F)F [Compound 1.21, 2-(7-hydroxy-2-trifluoromethyl-[1,8]-naphthyridine-3-carbony)-cyclohexane-1,3-dione]
[1]
  pest or weed control at 1000 g/ha: 100%
[2]
  pest or weed control at 1000 g/ha: 100%
[3]
  pest or weed control at 1000 g/ha: 100%
[4]
  pest or weed control at 1000 g/ha: 100%
[5]
  pest or weed control at 1000 g/ha: 100%
[6]
  pest or weed control at 1000 g/ha: 80%
[7]
  pest or weed control at 1000 g/ha: 100%
[8]
  pest or weed control at 1000 g/ha: 100%
[9]
  pest or weed control at 1000 g/ha: 100%
[10]
  pest or weed control at 1000 g/ha: 100%

## CC(C)Cc1nc2nc(C(F)(F)F)c(C(=O)C3C(=O)CCCC3=O)cc2cc1F [Compound 1.70, 2-[6-fluoro-7-(2-methylpropyl)-2-trifluoromethyl-[1,8]-naphthyridine-3-carbony]-cyclohexane-1,3-dione]
[1]
  POST Application ALOMY, damage to plant: 90
[2]
  POST Application AMARE, damage to plant: 90
[3]
  POST Application ECHCG, damage to plant: 90
[4]
  POST Application SETFA, damage to plant: 90
[5]
  POST Application SOLNI, damage to plant: 80
[6]
  PRE Application ALOMY, damage to plant: 90
[7]
  PRE Application AMARE, damage to plant: 40
[8]
  PRE Application ECHCG, damage to plant: 100
[9]
  PRE Application SETFA, damage to plant: 100
[10]
  PRE Application SOLNI, damage to plant: 100

## N#CCn1c(=O)ccc2cc(C(=O)C3C(=O)CCCC3=O)c(C(F)(F)F)nc21 [Compound 2.3]
[1]
  POST Application ALOMY, damage to plant: 20
[2]
  POST Application AMARE, damage to plant: 90
[3]
  POST Application ECHCG, damage to plant: 80
[4]
  POST Application SETFA, damage to plant: 90
[5]
  POST Application SOLNI, damage to plant: 90
[6]
  PRE Application ALOMY, damage to plant: 20
[7]
  PRE Application AMARE, damage to plant: 90
[8]
  PRE Application ECHCG, damage to plant: 80
[9]
  PRE Application SETFA, damage to plant: 60
[10]
  PRE Application SOLNI, damage to plant: 90

## CC#CCn1c(=O)ccc2cc(C(=O)C3C(=O)CCCC3=O)c(C(F)(F)F)nc21 [Compound 2.19, 2-(8-(But-2-ynyl)-7-oxo-7,8-dihydro-2-trifluoromethyl-[1,8]-naphthyridine-3-carbony)-cyclohexane-1,3-dione]
[1]
  POST Application ALOMY, damage to plant: 100
[2]
  POST Application AMARE, damage to plant: 70
[3]
  POST Application ECHCG, damage to plant: 90
[4]
  POST Application SETFA, damage to plant: 100
[5]
  POST Application SOLNI, damage to plant: 100
[6]
  PRE Application ALOMY, damage to plant: 100
[7]
  PRE Application AMARE, damage to plant: 100
[8]
  PRE Application ECHCG, damage to plant: 100
[9]
  PRE Application SETFA, damage to plant: 100
[10]
  PRE Application SOLNI, damage to plant: 100

## O=C1CCCC(=O)C1C(=O)c1cc2ccc(=O)n(CC3CC3)c2nc1C(F)(F)F [Compound 2.9, 2-{8-(cyclopropylmethyl)-7-oxo-7,8-dihydro-2-trifluoromethyl-[1,8]-naphthyridine-3-carbony}-cyclohexane-1,3-dione]
[1]
  POST Application ALOMY, damage to plant: 90
[2]
  POST Application AMARE, damage to plant: 100
[3]
  POST Application ECHCG, damage to plant: 90
[4]
  POST Application SETFA, damage to plant: 90
[5]
  POST Application SOLNI, damage to plant: 90
[6]
  PRE Application ALOMY, damage to plant: 60
[7]
  PRE Application AMARE, damage to plant: 60
[8]
  PRE Application ECHCG, damage to plant: 100
[9]
  PRE Application SETFA, damage to plant: 90
[10]
  PRE Application SOLNI, damage to plant: 90

## Cc1c(F)cnc2nc(C(F)(F)F)c(C(=O)C3C(=O)C4CCC(C4)C3=O)cc12 (stereo not drawn) [Compound 3.5, 3-[6-Fluoro-5-methyl-2-trifluoromethyl-[1,8]-naphthyridine-3-carbony]-bicyclo[3.2.1]octane-2,4-dione]
[1]
  pest or weed control at 1000 g/ha: 0%
[2]
  pest or weed control at 1000 g/ha: 50%
[3]
  pest or weed control at 1000 g/ha: 70%
[4]
  pest or weed control at 1000 g/ha: 70%
[5]
  pest or weed control at 1000 g/ha: 80%
[6]
  pest or weed control at 1000 g/ha: 0%
[7]
  pest or weed control at 1000 g/ha: 20%
[8]
  pest or weed control at 1000 g/ha: 50%
[9]
  pest or weed control at 1000 g/ha: 30%
[10]
  pest or weed control at 1000 g/ha: 60%

## O=C1CCCC(=O)C1C(=O)c1cc2ccc(OC3CCCC3)nc2nc1C(F)(F)F [Compound 1.16]
[1]
  POST Application ALOMY, damage to plant: 70
[2]
  POST Application AMARE, damage to plant: 70
[3]
  POST Application ECHCG, damage to plant: 70
[4]
  POST Application SETFA, damage to plant: 90
[5]
  POST Application SOLNI, damage to plant: 90
[6]
  PRE Application ALOMY, damage to plant: 60
[7]
  PRE Application AMARE, damage to plant: 80
[8]
  PRE Application ECHCG, damage to plant: 90
[9]
  PRE Application SETFA, damage to plant: 90
[10]
  PRE Application SOLNI, damage to plant: 90

## Cc1ccc2cc(C(=O)C3C(=O)CCCC3=O)c(C(F)F)nc2n1 [Compound 1.85, 2-(2-difluoromethyl-7-methyl-[1,8]-naphthyridine-3-carbonyl)-cyclohexane-1,3-dione]
[1]
  pest or weed control at 1000 g/ha: 50%
[2]
  pest or weed control at 1000 g/ha: 80%
[3]
  pest or weed control at 1000 g/ha: 80%
[4]
  pest or weed control at 1000 g/ha: 80%
[5]
  pest or weed control at 1000 g/ha: 80%
[6]
  pest or weed control at 1000 g/ha: 10%
[7]
  pest or weed control at 1000 g/ha: 90%
[8]
  pest or weed control at 1000 g/ha: 100%
[9]
  pest or weed control at 1000 g/ha: 80%
[10]
  pest or weed control at 1000 g/ha: 100%
